Laboratory results: US12264134B2 (Merck Sharp & Dohme LLC, priority 2018, dated 2025)

Key:
[1] = target: T1, IDO1 (Homo sapiens, UniProt P14902); experiment: IDO1 Cellular Assay in HeLa Cells Stimulated with IFNγ; type: cell-based; settings: read-out: HeLa Cell Potency, IC50
[2] = target: T1, IDO1; experiment: IDO1 Human Whole blood Assay; type: cell-based; parameters: Human whole blood was drawn in sodium heparin coated tubes from healthy internal donors; from tissue; host or cells: human whole blood from healthy donors, stimulated with LPS and IFNγ; settings: LPS and IFNγ stimulated, 18 h, read-out: Human Whole Blood Potency, IC50
Experimental: IDO1Human Whole blood Assay
Compounds to be tested were serially diluted in ten 3-fold steps in DMSO starting from 10 mM. 3 μL of compound dilutions or DMSO alone were then dispensed from the dilution plate into a polypropylene 96-well assay plate containing 97 μL of RPMI medium using an Echo 555 acoustic liquid handler (Labcyte). LPS and IFNγ was prepared in RPMI medium to a 10× of final conc. (1000 ng/mL), final concentration is 100 ng/mL.
Human whole blood was drawn in sodium heparin coated tubes from healthy internal donors. 240 μL of blood was transferred to each of the wells of a v-bottom 96 well plate. 30 μL of compound was transferred from intermediate dilution plate, and incubated for 15 min. 30 μL from stimulants was then transferred to blood and mixed thoroughly. Plate was covered with breathable membrane and incubated at 37° C. for overnight (18 h).
On day 2, isotope labeled standard solutions of kynurenine and tryptophan was made in water at 10× concentration and 30 μL was added to the blood at 3 μM final concentration. The assay plates were centrifuged at 300×G for 10 min with no brake to separate plasma from red blood cells. 60 μL of plasma samples was removed without disturbing red blood cells. Plasma was diluted with RPMI in 1:1 ratio and proteins were precipitated out with two volumes of Acetonitrile. The plates were centrifuged at 4000×G for 60 min. 20 μL of supernatant was carefully transferred to a 384 well plate containing 40 μL of 0.1% formic acid in water and analyzed by LC/MS/MS.
LC/MS/MS analyses were performed using Thermo Fisher's LX4-TSQ Quantum Ultra system. This system consists of four Agilent binary high-performance liquid chromatography (HPLC) pumps and a TSQ Quantum Ultra triple quadrupole MS/MS instrument. For each sample, 5 μL were injected onto an Atlantis T3 column (2.1 mm×150 mm, 3 μm particle size) from Waters. The mobile phase gradient pumped at 0.8 mL/min was used to elute the analytes from the column at 25° C. The elution started at 0% B increasing linearly to 25% B at 6.5 min, holding at 25% for 1 min, re-equilibrating to 10 min. Mobile phase A consisted of 0.1% formic acid in water. Mobile phase B consisted of 0.1% of formic acid in acetonitrile. Data were acquired in positive mode using a HESI interface. The operational parameters for the TSQ Quantum Ultra instrument were a spray voltage of 4000 V, capillary temperature of 380° C., vaporizer temperature 400° C., shealth gas 60 arbitrary units, Aux gas 20 arbitrary units, tube lens 85 and collision gas 1.2 mTorr. SRM chromatograms of kynurenine (Q1: 209.2>Q3:94.0) and internal standard (Q1: 215.3>Q3:98.2) were collected for 90 sec. The peak area was integrated by Xcalibur Quan software. The ratios between the kynurenine generated in the reaction and 2D6-Kynurenine spiked-in internal standard were used to generate percentage inhibition and IC50 values. Compounds were titrated and IC50's were calculated by 4 parameter sigmoidal curve fitting formula.

T1 sequence (P14902 whole entry): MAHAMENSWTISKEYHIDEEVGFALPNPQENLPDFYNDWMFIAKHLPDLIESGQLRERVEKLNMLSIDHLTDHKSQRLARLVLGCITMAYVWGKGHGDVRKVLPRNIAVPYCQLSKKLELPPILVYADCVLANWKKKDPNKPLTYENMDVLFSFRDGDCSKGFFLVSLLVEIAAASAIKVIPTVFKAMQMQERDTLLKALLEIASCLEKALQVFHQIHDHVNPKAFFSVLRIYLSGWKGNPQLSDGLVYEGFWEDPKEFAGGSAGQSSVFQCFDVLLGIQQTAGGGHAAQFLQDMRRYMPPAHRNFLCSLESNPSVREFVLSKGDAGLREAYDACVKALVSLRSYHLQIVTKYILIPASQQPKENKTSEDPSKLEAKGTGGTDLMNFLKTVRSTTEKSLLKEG

SMILES | IC50 [1] [nM] | IC50 [2] [nM]
Cc1cccc(N2CCN(C(=O)Cn3nc(C(=O)N4CC[C@H](O)[C@H](F)C4)c4c3CC(C(F)F)C4)CC2)c1C (mixture of isomers) [Example 17, 2-[rac-5-(difluoromethyl)-3-[(3R,4S)-3-fluoro-4-hydroxy-piperidine-1-carbonyl]-5,6-dihydro-4H-cyclopenta[c]pyrazol-1-yl]-1-[4-(2,3-dimethylphenyl)piperazin-1-yl]ethanone] | 10.9 | 625
Cc1cccc(N2CCN(C(=O)Cn3nc(C(=O)N4CCCC4)c4c3CCC(F)C4)CC2)c1C (single isomer, unassigned) [Example 7, 1-(4-(2,3-dimethylphenyl)piperazin-1-yl)-2-(5-fluoro-3-(pyrrolidine-1-carbonyl)-4,5,6,7-tetrahydro-1H-indazol-1-yl)ethanone] | 11.1 | 934
Cc1cccc(N2CCN(C(=O)Cn3nc(C(=O)N4CCCC4)c4c3CCC(F)C4)CC2)c1C (single isomer, unassigned) [Example 8, 1-(4-(2,3-dimethylphenyl)piperazin-1-yl)-2-(5-fluoro-3-(pyrrolidine-1-carbonyl)-4,5,6,7-tetrahydro-1H-indazol-1-yl)ethanone] | 11.3 | 2440
Cc1cccc(N2CCN(C(=O)Cn3nc(C(=O)N4CC[C@H](O)[C@H](F)C4)c4c3CC(C(F)F)C4)CC2)c1C (single isomer, unassigned) [Example 11] | 7.6 | 980
Cc1cccc(N2CCN(C(=O)Cn3nc(C(=O)N4CCC(O)C(F)C4)c4c3CCC4)C3(CC3)C2)c1C (single isomer, unassigned) [Example 329, 1-[7-(2,3-dimethylphenyl)-4,7-diazaspiro[2.5]octan-4-yl]-2-[3-(3-fluoro-4-hydroxy-piperidine-1-carbonyl)-5,6-dihydro-4H-cyclopenta[c]pyrazol-1-yl]ethanone] | 7.2 | 904
Cc1cccc(N2CCN(C(=O)Cn3nc(C(=O)N4CCC(O)C(F)C4)c4c3CCC4)C3(CC3)C2)c1C (single isomer, unassigned) [Example 330, 1-[7-(2,3-dimethylphenyl)-4,7-diazaspiro[2.5]octan-4-yl]-2-[3-(3-fluoro-4-hydroxy-piperidine-1-carbonyl)-5,6-dihydro-4H-cyclopenta[c]pyrazol-1-yl]ethanone] | 7.61 | 971
Cc1cccc(N2CCN(C(=O)Cn3nc(C(=O)N4CCC(O)C(F)C4)c4c3CCC4)C3(CC3)C2)c1C (single isomer, unassigned) [Example 393, 1-(7-(2,3-dimethylphenyl)-4,7-diazaspiro[2.5]octan-4-yl)-2-(3-(3-fluoro-4-hydroxypiperidine-1-carbonyl)-5,6-dihydrocyclopenta[c]pyrazol-1(4H)-yl)ethanone] | 7.61 | 971
Cc1cccc(N2CCN(C(=O)Cn3nc(C(=O)N4CCC(O)C(F)C4)c4c3CCC4)C3(CC3)C2)c1C (single isomer, unassigned) [Example 394, 1-(7-(2,3-dimethylphenyl)-4,7-diazaspiro[2.5]octan-4-yl)-2-(3-(3-fluoro-4-hydroxypiperidine-1-carbonyl)-5,6-dihydrocyclopenta[c]pyrazol-1(4H)-yl)ethanone] | 7.2 | 904
Cc1cccc(N2CCN(C(=O)Cn3nc(C(=O)N4CCC(O)C(F)C4)c4c3CCC4)C3(CC3)C2)c1C (single isomer, unassigned) [Example 395, 1-(7-(2,3-dimethylphenyl)-4,7-diazaspiro[2.5]octan-4-yl)-2-(3-(3-fluoro-4-hydroxypiperidine-1-carbonyl)-5,6-dihydrocyclopenta[c]pyrazol-1(4H)-yl)ethanone] | 6.86 | 4160

The remaining molecules from weak to strong by IC50 [1], led by results:

IC50 [1] [nM] | IC50 [2] [nM] | SMILES
6.86 | 4160 | Cc1cccc(N2CCN(C(=O)Cn3nc(C(=O)N4CCC(O)C(F)C4)c4c3CCC4)C3(CC3)C2)c1C (single isomer, unassigned) [Example 328, 1-[7-(2,3-dimethylphenyl)-4,7-diazaspiro[2.5]octan-4-yl]-2-[3-(3-fluoro-4-hydroxy-piperidine-1-carbonyl)-5,6-dihydro-4H-cyclopenta[c]pyrazol-1-yl]ethanone]
5.91 | 516 | Cc1cccc(N2CCN(C(=O)Cn3nc(C(=O)N4CC[C@@H](O)C(F)(F)C4)c4c3CCC4)CC2)c1C (single isomer, unassigned) [Example 202, 2-[3-[(4R or 4S)-3,3-difluoro-4-hydroxy-piperidine-1-carbonyl]-5,6-dihydro-4H-cyclopenta[c]pyrazol-1-yl]-1-[4-(2,3-dimethylphenyl)piperazin-1-yl]ethanone]
5.03 | 813 | Cc1cccc(N2CCN(C(=O)Cn3nc(C(=O)N4CCC(OCCO)CC4)c4c3C[C@H]3C[C@@H]43)[C@H]3CCC[C@@H]32)c1C (racemic) [Example 326, 1-[rac-(4aS,7aS or 4aR,7aR)-1-(2,3-dimethylphenyl)-3,4a,5,6,7,7a-hexahydro-2H-cyclopenta[b]pyrazin-4-yl]-2-[(2R,4R)-9-[4-(2-hydroxyethoxy)piperidine-1-carbonyl]-7,8-diazatricyclo[4.3.0.02,4]nona-1(6),8-dien-7-yl]ethanone]
4.26 | 126 | Cc1cccc(N2CCN(C(=O)Cn3nc(C(=O)N4CCC(O)CC4)c4c3C[C@H](C(F)F)C4)CC2)c1C (single isomer, unassigned) [Example 9]
4.08 | 625 | Cc1cccc(N2CCN(C(=O)Cn3nc(C(=O)N4CCC(O)C(F)C4)c4c3CCC4)C3(CC3)C2)c1C (single isomer, unassigned) [Example 396, 1-(7-(2,3-dimethylphenyl)-4,7-diazaspiro[2.5]octan-4-yl)-2-(3-(3-fluoro-4-hydroxypiperidine-1-carbonyl)-5,6-dihydrocyclopenta[c]pyrazol-1(4H)-yl)ethanone]
3.78 | 202 | Cc1c(Cl)cccc1N1CCN(C(=O)Cn2nc(C(=O)N3CCC(OCCO)CC3)c3c2CCC(F)C3)CC1 (single isomer, unassigned) [Example 373, 1-(4-(3-chloro-2-methylphenyl)piperazin-1-yl)-2-(5-fluoro-3-(4-(2-hydroxyethoxy)piperidine-1-carbonyl)-4,5,6,7-tetrahydro-1H-indazol-1-yl)ethan-1-one]
3.67 | 1800 | Cc1cccc(N2CCN(C(=O)Cn3nc(C(=O)N4CC[C@H](O)C(F)(F)C4)c4c3CCC4)CC2)c1C (single isomer, unassigned) [Example 201, 2-[3-[(4S or 4R)-3,3-difluoro-4-hydroxy-piperidine-1-carbonyl]-5,6-dihydro-4H-cyclopenta[c]pyrazol-1-yl]-1-[4-(2,3-dimethylphenyl)piperazin-1-yl]ethanone]
2.8 | 55 | Cc1c(Cl)cccc1N1CCN(C(=O)Cn2nc(C(=O)N3CCC(OCCO)CC3)c3c2CCC(F)C3)CC1 (single isomer, unassigned) [Example 368, 1-(4-(3-chloro-2-methylphenyl)piperazin-1-yl)-2-(5-fluoro-3-(4-(2-hydroxyethoxy)piperidine-1-carbonyl)-4,5,6,7-tetrahydro-1H-indazol-1-yl)ethan-1-one]
2.21 | 143 | Cc1cccc(N2CCN(C(=O)Cn3nc(C(=O)N4CCC(O)CC4)c4c3CC(C(F)F)C4)CC2)c1C (racemic) [Example 16, 2-[rac-5-(difluoromethyl)-3-(4-hydroxypiperidine-1-carbonyl)-5,6-dihydro-4H-cyclopenta[c]pyrazol-1-yl]-1-[4-(2,3-dimethylphenyl)piperazin-1-yl]ethanone]
1.74 | 233 | Cc1cccc(N2CCN(C(=O)Cn3nc(C(=O)N4CCC(O)CC4)c4c3CC(C(F)F)C4)CC2)c1C (single isomer, unassigned) [Example 10, 2-[5-(difluoromethyl)-3-(4-hydroxypiperidine-1-carbonyl)-5,6-dihydro-5H-cyclopenta[c]pyrazol-1-yl]-1-[4-(2,3-dimethylphenyl)piperazin-1-yl]ethanone]
